Assay results: ChEMBL document CHEMBL3352299, “Antiproliferative 4-(1,2,4-oxadiazol-5-yl)piperidine-1-carboxamides, a new tubulin inhibitor chemotype” (Bioorg Med Chem Lett, 2014)

Tested on: K562
Test: Induction of mitotic arrest in human K562 cells assessed as mitotic indices at 100 uM by light microscopy
Assay type: functional

COc1ccc(/C=C\c2cc(OC)c(OC)c(OC)c2)cc1O [COMBRETASTATIN A4]
Activity: 82%
